ChEMBL document CHEMBL2074358, “Differential gene expression of organic anion transporters in male and female rats” (Biochem Biophys Res Commun, 2002)

Columns and labels:
[1] = molecular target: T1, Organic anion transporter 3 (Rattus norvegicus, UniProt Q9R1U7); experiment: (§1) TP_TRANSPORTER: Northern blot in vivo, kidney of Wistar rat; format: functional, organism-based
T1 sequence (Q9R1U7 whole entry): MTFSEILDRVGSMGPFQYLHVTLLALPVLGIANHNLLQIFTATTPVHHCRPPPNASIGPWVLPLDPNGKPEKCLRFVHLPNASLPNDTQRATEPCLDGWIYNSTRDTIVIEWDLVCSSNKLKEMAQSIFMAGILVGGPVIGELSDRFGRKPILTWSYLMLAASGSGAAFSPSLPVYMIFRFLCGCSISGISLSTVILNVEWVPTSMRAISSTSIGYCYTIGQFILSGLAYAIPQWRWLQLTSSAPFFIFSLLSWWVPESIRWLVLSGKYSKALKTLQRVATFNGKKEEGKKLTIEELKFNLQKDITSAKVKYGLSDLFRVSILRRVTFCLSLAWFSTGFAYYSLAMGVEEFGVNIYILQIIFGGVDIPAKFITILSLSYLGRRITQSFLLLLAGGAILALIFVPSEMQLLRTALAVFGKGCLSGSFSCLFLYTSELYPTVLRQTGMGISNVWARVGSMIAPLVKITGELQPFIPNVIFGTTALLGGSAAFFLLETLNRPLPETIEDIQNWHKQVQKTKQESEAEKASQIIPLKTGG

[2] = molecular target: T2, Solute carrier family 22 member 7 (Rattus norvegicus, UniProt Q5RLM2); experiment: as §1; format: functional, organism-based
T2 sequence (Q5RLM2 whole entry): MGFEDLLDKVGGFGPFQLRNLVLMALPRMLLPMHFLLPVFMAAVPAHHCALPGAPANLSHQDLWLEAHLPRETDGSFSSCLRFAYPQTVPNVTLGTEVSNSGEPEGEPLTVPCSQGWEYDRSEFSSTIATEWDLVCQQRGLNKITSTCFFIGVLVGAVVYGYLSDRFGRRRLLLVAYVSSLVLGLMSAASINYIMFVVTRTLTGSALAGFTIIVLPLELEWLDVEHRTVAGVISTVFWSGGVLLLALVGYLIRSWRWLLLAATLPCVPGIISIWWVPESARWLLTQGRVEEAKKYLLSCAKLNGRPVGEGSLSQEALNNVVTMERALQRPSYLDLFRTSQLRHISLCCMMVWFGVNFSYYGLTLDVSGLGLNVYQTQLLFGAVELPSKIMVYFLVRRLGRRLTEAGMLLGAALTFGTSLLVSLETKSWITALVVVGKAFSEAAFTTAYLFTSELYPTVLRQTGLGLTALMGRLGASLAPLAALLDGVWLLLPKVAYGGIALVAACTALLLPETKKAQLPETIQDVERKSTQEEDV

## C[C@]12CC[C@H]3[C@@H](CCC4=CC(=O)CC[C@@]43C)[C@@H]1CC[C@@H]2O [TESTOSTERONE]
[1]
  Activity: inducer [+]
[2]
  Activity: inducer [Decrease]
